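Test compounds were applied to cells in 96-well plates for 48 hours at 5 doses. GI50: concentration for 50% inhibition of growth. TGI: total growth inhibition.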

This passage reports GI50 and TGI results from PubChem BioAssay (NCI).

Some test systems named below: KM12 colon; MALME-3M melanoma; U251 CNS; RXF 393 renal; IGROV1 ovarian; DU-145 prostate; MCF7 breast; SF-539 CNS; T-47D breast; SNB-19 CNS.
What all share (experiment): growth of human tumour cells (NCI), 48 h

With `CN1CCN(Cn2nc(-c3cc(F)c(Cl)cc3Cl)oc2=S)CC1`, the GI50 in the assay with KM12 colon is 42.7 µM; with MALME-3M melanoma, 26.4 µM; in the assay on U251 CNS, 35.1 µM; in the assay on RXF 393 renal, 32.5 µM; in the assay with IGROV1 ovarian, 37.1 µM; in the assay on DU-145 prostate it was 41.4 µM. Moreover, the GI50 in the assay with MCF7 breast was 30.2 µM; with SF-539 CNS it was 29.9 µM; in the assay with SNB-19 CNS, 35.2 µM. In addition, the TGI in the assay with KM12 colon is over 100 µM; in the assay with MALME-3M melanoma, 74.1 µM; with U251 CNS, over 100 µM; in the assay on RXF 393 renal it was 93.8 µM; with IGROV1 ovarian, over 100 µM; with DU-145 prostate it was over 100 µM. Further, the TGI with MCF7 breast was over 100 µM; in the assay with SF-539 CNS, 71.5 µM; with T-47D breast, 27 µM; in the assay with SNB-19 CNS, over 100 µM.
